Measurements: patent US8609347B2, “Biomarkers for prenatal diagnosis of congenital cytomegalovirus” (priority 2007, dated 2013)

Tests used:
Type in all cases: cell-based, human
CEACAM1 = CEACAM1 expression by flow cytometry in HUVEC; details: treatment with antioxidants; ratios of mean fluorescence intensity to control cells
Source text: FIG. 6A-D: CEACAM protein increases in CMV-infected HUVEC. (A) (Left panel) Flow cytometric analysis of CEACAM1 surface expression. Typical histograms from control and infected human umbilical vein endothelial cells (HUVEC) are shown. Shaded areas represent expression of specific proteins, and lines represent isotype control. (Middle panel) Graphs represent mean fluorescence intensity (mean±SE). Statistically significant differences are indicated (*p<0.05, **p<0.001). (Right panel) VR1814-infected HUVEC increase intracellular CEACAM1 protein. Permeabilized cells were analyzed by flow cytometry. Shaded areas represent expression of specific proteins; lines represent isotype control. (B) CEACAM1 levels in conditioned medium measured by ELISA. Polyclonal and biotinylated CEACAM1-specific IgG (R&D Systems) were used for coating and detection, respectively. CEACAM1 was quantified with peroxidase-conjugated streptavidin. CEACAM1 concentration increased in conditioned medium from infected HUVEC (1 PFU/cell). Graphs represent mean value±SE (n=4). Statistically significant differences are indicated (*p<0.05). (C) Infected HUVEC and controls were immunostained for CEACAM1 and CMV gB. Please Note: cells without viral proteins express CEACAM1. […] Ratios of the mean fluorescence intensity were obtained with control cells.

[1] = tested on: TGF-β1 activation in CMV-infected HUVECs; experiment: TGF-β bioassay: TMLC TGF-β reporter cells co-cultured with CMV-infected HUVECs, luciferase activity; details: 7 days after infection; Foscarnet 400 μmol/L or phosphonoacetic acid 100 μg/ml
Source text: FIG. 18: Integrin αvβ6-dependent TGF-β1 activation in CMV-infected HUVECs. A: TGF-β1 production by infected HUVECs. Conditioned medium was collected from control (open circles) and infected (filled circles) HUVECs at 1 to 9 days, and TGF-β1 was quantified by enzyme-linked immunosorbent assay. Results are the mean (±SE) of three experiments done in duplicate. Asterisks indicate the amount of TGF-β1 in infected HUVECs as compared with uninfected controls (*P<0.05, **P<0.01). B: Surface expression of TGF-β1 in HUVECs was analyzed by flow cytometry at 3, 7, and 10 days after infection and controls (cont). Typical histograms are shown. Shaded areas represent expression of specific proteins. Lines represent isotype control. Experiments were repeated at least three times. C: Total TGF-β1 was analyzed by flow cytometry using permeabilized cells at 3, 7, and 10 days after infection (inf.) and controls (cont). Left: Typical histograms at 10 days are shown. Shaded areas represent expression of specific proteins. Lines represent isotype control. Right: Results are the mean fluorescence intensity (±SE) of three experiments. Asterisks indicate expression in infected HUVECs as compared with uninfected controls (*P<0.05). D: TGF-β bioassay of active TGF-β produced by infected HUVECs. […] Relative luciferase activity in cell lysates was defined as the measured activity divided by TMLC baseline activity. […]

integrin β6 = experiment: Surface expression of integrin αvβ6 by flow cytometry in CMV-infected HUVECs; details: 7 days, SB431542 0.1 to 1 μmol/L, Foscarnet 400 μmol/L, phosphonoacetic acid 100 μg/ml
Experimental: FIG. 20: Induction of integrin αvβ6 expression requires TGF-β signaling and viral DNA replication A: Infected HUVECs were cultured with or without chicken anti-TGF-β polyclonal antibody (20 μg/ml), chicken IgY isotype control antibody (control Ab, 20 μg/ml), the ALK5 kinase inhibitor SB431542 (0.5 μmol/L), or the vehicle DMSO for 7 days, and surface expression of integrin αvβ6 was analyzed by flow cytometric analysis. Typical histograms are shown. Shaded areas represent expression of specific proteins. Lines represent isotype control. Experiments were repeated at least two times. B: Surface expression of integrin αvβ6 was analyzed by flow cytometric analysis at 7 days after infection with or without viral DNA polymerase inhibitors, Foscarnet, and phosphonoacetic acid (PAA). Typical histograms are shown. Shaded areas represent expression of specific proteins. Lines represent isotype control. Experiments were repeated six times. C: Active TGF-β was not produced by infected HUVECs in the presence of viral DNA polymerase inhibitors. Equal numbers of TMLC TGF-β reporter cells and control (cont.) or infected HUVECs were cultured for 16 to 24 hours at 7 days after infection. Relative luciferase activity in cell lysates was defined as the measured activity divided by TMLC baseline activity. Representative data (mean±SE) are from four experiments done in triplicate.
The present example assesses how integrin β6 is induced on CMV infection in HUVECs. It has been reported that TGF-β1 induces de novo synthesis of integrin β6 in normal human keratinocytes (Zambruno et al., J Cell Biol, 129:853-865 (1995)) and strongly up-regulates its expression in primary cultures of human airway epithelial cells (Wang et al., Am J Respir Cell Mol Biol, 15:664-672 (1996)). […] HUVECs were cultured with the filtered conditioned medium for 8 days, and expression of integrin β6 was analyzed. […] It was then determined whether viral late gene expression is required for the up-regulation of integrin β6 in infected cells because the expression was observed only at late times after infection. […]

Smad3 phosphorylation = Smad3 phosphorylation by immunoblot in CMV-infected HUVECs; details: 8-day infected HUVECs; 1D11 40 μg/ml, 3G9 80 μg/ml, SB431542 2.5 μmol/L
Experimental: FIG. 19: CMV-infected HUVECs induce Smad3 phosphorylation. Cell lysates from control (cont.) or infected (inf.) HUVECs at 3, 7, and 10 days after infection were fractionated by 10% SDS-PAGE and blotted on nitrocellulose. Phosphorylation of Smad3 (pSmad3) and Smad1/5 (pSmad1/5) was analyzed by immunoblotting using phospho-specific Smad3 and Smad1/5/8 (pSmad1/5) antibodies. Equal loading of the gels was confirmed using Smad2/3, Smad1, and Smad5 protein levels. B: Effects of anti-TGF-β antibody, anti-αvβ6 antibody (3G9), and ALK5 kinase inhibitor on Smad3 phosphorylation. […]
Activated TGF-β1 can bind the type I receptors ALK1 and ALK5, which then phosphorylate the transcriptional activators Smad1/5 and Smad2/3, respectively (ten Dijke, P. and Hill, C. S., Trends Biochem Sci, 29:265-273 (2004)). To determine which of these TGF-β1 signaling pathways is activated in CMV-infected HUVECs, Smad1/5 and Smad3 phosphorylation was analyzed by immunoblotting with antibodies specific to Smads and their phosphorylated forms (FIG. 19A). Smad3 phosphorylation was strongly detected in 7- and 10-day-infected cells. […] Phosphorylated Smad1/5 was also weakly detected in the control. […]

type IV collagen = experiment: Type IV collagen expression (flow cytometry, immunoblot) in CMV-infected HUVECs; details: infected HUVECs treated for 7 days
Experimental: FIG. 22: Increased type IV collagen synthesis by CMV infection was blocked by anti-TGF-β and anti-αvβ6 neutralizing antibodies. A: Surface expression of type IV collagen was analyzed by flow cytometric analysis at 10 days after infection. Typical histograms from control (cont.) and infected (inf.) HUVECs are shown. Shaded areas represent expression of specific proteins. Lines represent isotype control. B: The results represent the mean fluorescence intensity of type IV collagen (mean±SE) from three to seven experiments. Asterisks indicate surface expression in infected HUVECs as compared with uninfected controls (*P<0.01). C: Cell lysates from control (cont.) or infected (inf.) HUVECs at 3, 7, and 10 days after infection were fractionated by 8% SDS-PAGE and blotted on nitrocellulose. Filters were incubated with anti-type IV collagen (Col IV) and anti-actin (loading control) antibodies. D: Surface expression of type IV collagen was analyzed by flow cytometric analysis at 7 days without antibody (untreated) or with anti-TGF-β neutralizing antibody (1D11), function-blocking anti-αvβ6 antibody (3G9), or mouse IgG1 isotype control antibody (control Ab). Relative surface expression as expressed by mean fluorescence intensity was normalized for control HUVECs in the same experiment. Results are the mean (±SE) from three experiments. […]

fibronectin = experiment: Surface expression of fibronectin in CMV-infected HUVECs; details: late times after infection
Source text: TGF-β1 is a potent fibrotic factor responsible for the synthesis of ECM, and profibrotic TGF-β1 responses are induced primarily via ALK5/Smad3 signal transduction in normal fibroblasts (Ishida et al., J Invest Dermatol, 126:1733-1744 (2006)). TGF-β1 also potently promotes the synthesis and deposition of ECM in endothelial cells (Pepper, M. S., Cytokine Growth Factor Rev, 8:21-43 (1997)). […] Therefore, it was investigated in the present example whether CMV-activated TGF-β1 could increase ECM production and whether blocking TGF-β1 activation could prevent the effect. […] To evaluate the effect of inhibition of activation of TGF-β1 on CMV-induced profibrotic response, infected cells were treated with anti-TGF-β (1D11) and anti-αvβ6 (3G9) antibodies for 7 days. […] In addition, surface expression of fibronectin was increased at late times after infection, and was reduced by the ALK5 kinase inhibitor.

## O[C@H](CS)[C@H](O)CS (racemic) [DTT, dithiothreitol]
CEACAM1
  CEACAM1 expression: reduce CEACAM1 expression

## C[S+](C)[O-] [DMSO, dimethyl sulfoxide]
CEACAM1
  CEACAM1 expression: reduce CEACAM1 expression

## O=C(O)P(=O)(O)O [Foscarnet]
[1]
  induction of TMLC luciferase activity (active TGF-β): strongly suppressed
Integrin β6
  induction of integrin β6: blocked induction of integrin β6

## NC(=O)c1ccc(-c2nc(-c3ccc4c(c3)OCO4)c(-c3ccccn3)[nH]2)cc1 [SB431542]
Smad3 phosphorylation
  Smad3 phosphorylation: prevented Smad3 phosphorylation
Integrin β6
  induction of integrin β6: nearly abolish it at high concentrations
Type IV collagen
  surface expression of type IV collagen: inhibitory effect
fibronectin
  surface expression of fibronectin: reduced

## O=C(O)CP(=O)(O)O [phosphonoacetic acid]
[1]
  induction of TMLC luciferase activity (active TGF-β): strongly suppressed
Integrin β6
  induction of integrin β6: blocked induction of integrin β6

## OCCS [β-mercaptoethanol]
CEACAM1
  CEACAM1 expression: reduce CEACAM1 expression
